In patent publication US11642342B2, “Combinations of estrogen receptor degraders and cyclin-dependent kinase inhibitors for treating cancer” (Accutar Biotechnology, priority 2019, dated 2023):

Tests used:
ER-positive T47D cells = assay: T47D cell growth inhibition (CellTiter-Glo, 6 days), ER degrader plus CDK4/6 inhibitor; format: cell-based, human
[1] = system: MCF7 human xenograft tumors; assay: Anti-tumor efficacy in MCF7 human xenograft tumors; format: in vivo; conditions: BALB/c nude mouse, 17β-estradiol tablet, treated for 21 days, versus each agent alone
Description: MCF-7 cells, a breast cancer cell cline, (10×10^6) in 0.1 mL of PBS mixed with 0.1 mL matrigel (total 0.2 mL) were inoculated subcutaneously at the right flank of each mouse, which has been implanted with 17β-estradiol (0.18 mg) tablet subcutaneously in the left flank three days before. When the average tumor volume reaches approximately 175 mm^3, the animals were randomized and treatment was started.
MCF-7 tumor cells (10×10^6) in 0.1 mL of PBS mixed with 0.1 mL matrigel (total 0.2 mL) were inoculated subcutaneously at the right flank of each BALB/c nude mouse, which has been implanted with 17β-estradiol (0.18 mg) tablet subcutaneously in the left flank three days before. When the average tumor volume reached approximately 175 mm^3, the animals were randomized and treated for 21 days with an ER degrader 160a alone, or with a CDK4/6 inhibitor, Palbociclib, alone, or with the combination of ER degrader 160a and Palbociclib.
MCF-7 tumor cells (10×10^6) in 0.1 mL of PBS mixed with 0.1 mL matrigel (total 0.2 mL) were inoculated subcutaneously at the right flank of each BALB/c nude mouse, which has been implanted with 17β-estradiol (0.18 mg) tablet subcutaneously in the left flank three days before. […]

[2] = system: Tamoxifen-resistant MCF7 human xenograft tumors; assay: Anti-tumor efficacy in tamoxifen-resistant MCF7 human xenograft tumors; format: in vivo; conditions: tamoxifen-resistant MCF7 xenograft (passage 9), BALB/c nude mouse, treated for 28; versus each agent alone
Description: Tamoxifen-resistant MCF-7 cells were subcutaneously implanted to establish cell line-derived xenograft tumors. […] This tumor was then defined as passage 0. The tumor fragments were constantly implanted into new animals (per passage) with 30 mg/kg Tamoxifen treatment. For the efficacy study, the passage 9 tamoxifen-resistant tumor fragments (˜30 mm3) were inoculated subcutaneously at the right flank of each BALB/c nude mouse, which has been implanted with 17β-estradiol (0.36 mg) tablet subcutaneously in the left flank three days before. When the average tumor volume reached approximately 175 mm3, the animals were randomized and treated for 28. Tamoxifen-resistant MCF7 human xenograft tumors were treated with an ER degrader 160b alone, or with a CDK4/6 inhibitor, Palbociclib, alone, or with the combination of ER degrader 160b and Palbociclib.

| SMILES | cell growth inhibition, combination with Abemaciclib (ER-positive T47D cells; ER degrader at increasing concentrations combined with Abemaciclib 10, 30, 100 nM, versus single agent) | cell growth inhibition, combination with Palbociclib (ER-positive T47D cells; ER degrader at increasing concentrations combined with Palbociclib 10, 30, 100 nM, versus each agent alone) | tumor growth inhibition, combination with Palbociclib [1] | tumor growth inhibition, combination with Palbociclib [2] |
| --- | --- | --- | --- | --- |
| CCC(=C(c1ccc(O)cc1)c1ccc(N2CCC(CN3CCN(c4ccc5c(c4)CN([C@H]4CCC(=O)NC4=O)C5=O)CC3)CC2)cc1)c1ccccc1 [160a, (E)/(Z)-(S)-3-(5-(4-((1-(4-(1-(4-hydroxyphenyl)-2-phenylbut-1-en-1-yl)phenyl)piperidin-4-yl)methyl)piperazin-1-yl)-1-oxoisoindolin-2-yl)piperidine-2,6-dione] | synergizes with CDK4/6 inhibitor Abemaciclib in vitro to inhibit cell growth with greater efficacy than the ER degrader alone | synergizes with CDK4/6 inhibitor Palbociclib in vitro to inhibit cell growth with greater efficacy than the ER degrader or CDK4/6 inhibitor alone | synergizes with CDK4/6 inhibitor Palbociclib in vivo to inhibit tumor growth with greater efficacy than the ER degrader or CDK4/6 inhibitor alone |  |
| CC/C(=C(\c1ccc(O)cc1)c1ccc(N2CCC(CN3CCN(c4ccc5c(c4)CN([C@H]4CCC(=O)NC4=O)C5=O)CC3)CC2)cc1)c1ccccc1 [160b] |  |  |  | synergizes with CDK4/6 inhibitor Palbociclib in vivo to inhibit tumor growth with greater efficacy than the ER degrader or CDK4/6 inhibitor alone |
